Assay results as given in patent publication US9533985B2, “Sulfonamide derivative and medicinal use thereof” (EA Pharma Co., Ltd., priority 2012, dated 2017).

What follows are compounds tested against α4β7 integrin (Homo sapiens (Human), UniProt P13612+P26010) (assay: MAdCAM-1/α4β7 integrin binding inhibitory activity evaluation test in the presence of serum (2)). Conditions: RPMI-8866 cells binding to mouse MAdCAM-1/Fc, same manner as Test (3), read-out: α4β7 Rank of activity with serum added.
Chain of α4β7 integrin (P13612 34-1032): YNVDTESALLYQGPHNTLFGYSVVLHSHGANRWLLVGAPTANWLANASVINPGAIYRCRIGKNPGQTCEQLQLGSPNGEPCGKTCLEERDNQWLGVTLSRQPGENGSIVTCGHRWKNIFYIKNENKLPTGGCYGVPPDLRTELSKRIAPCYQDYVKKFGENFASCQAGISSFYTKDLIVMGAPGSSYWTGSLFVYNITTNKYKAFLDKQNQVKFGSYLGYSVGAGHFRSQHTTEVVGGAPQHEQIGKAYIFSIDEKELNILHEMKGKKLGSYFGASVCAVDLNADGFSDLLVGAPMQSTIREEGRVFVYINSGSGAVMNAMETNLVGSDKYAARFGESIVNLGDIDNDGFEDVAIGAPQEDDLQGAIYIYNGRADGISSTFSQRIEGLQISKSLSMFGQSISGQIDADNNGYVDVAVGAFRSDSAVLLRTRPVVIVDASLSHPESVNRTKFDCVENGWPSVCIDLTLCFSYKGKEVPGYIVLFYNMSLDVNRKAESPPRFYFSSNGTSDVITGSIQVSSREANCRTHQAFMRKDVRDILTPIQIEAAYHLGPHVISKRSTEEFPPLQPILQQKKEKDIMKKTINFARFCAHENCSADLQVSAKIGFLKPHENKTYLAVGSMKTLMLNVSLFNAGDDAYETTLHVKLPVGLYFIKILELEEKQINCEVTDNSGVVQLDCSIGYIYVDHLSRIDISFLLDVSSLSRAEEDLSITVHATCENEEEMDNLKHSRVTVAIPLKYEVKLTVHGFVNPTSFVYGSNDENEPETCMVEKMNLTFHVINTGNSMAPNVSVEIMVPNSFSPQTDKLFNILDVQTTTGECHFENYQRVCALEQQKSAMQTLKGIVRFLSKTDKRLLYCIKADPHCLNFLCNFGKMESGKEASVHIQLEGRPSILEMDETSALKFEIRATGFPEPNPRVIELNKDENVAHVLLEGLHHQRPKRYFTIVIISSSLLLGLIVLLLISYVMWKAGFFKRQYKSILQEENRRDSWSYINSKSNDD
Chain of α4β7 integrin (P26010 20-798): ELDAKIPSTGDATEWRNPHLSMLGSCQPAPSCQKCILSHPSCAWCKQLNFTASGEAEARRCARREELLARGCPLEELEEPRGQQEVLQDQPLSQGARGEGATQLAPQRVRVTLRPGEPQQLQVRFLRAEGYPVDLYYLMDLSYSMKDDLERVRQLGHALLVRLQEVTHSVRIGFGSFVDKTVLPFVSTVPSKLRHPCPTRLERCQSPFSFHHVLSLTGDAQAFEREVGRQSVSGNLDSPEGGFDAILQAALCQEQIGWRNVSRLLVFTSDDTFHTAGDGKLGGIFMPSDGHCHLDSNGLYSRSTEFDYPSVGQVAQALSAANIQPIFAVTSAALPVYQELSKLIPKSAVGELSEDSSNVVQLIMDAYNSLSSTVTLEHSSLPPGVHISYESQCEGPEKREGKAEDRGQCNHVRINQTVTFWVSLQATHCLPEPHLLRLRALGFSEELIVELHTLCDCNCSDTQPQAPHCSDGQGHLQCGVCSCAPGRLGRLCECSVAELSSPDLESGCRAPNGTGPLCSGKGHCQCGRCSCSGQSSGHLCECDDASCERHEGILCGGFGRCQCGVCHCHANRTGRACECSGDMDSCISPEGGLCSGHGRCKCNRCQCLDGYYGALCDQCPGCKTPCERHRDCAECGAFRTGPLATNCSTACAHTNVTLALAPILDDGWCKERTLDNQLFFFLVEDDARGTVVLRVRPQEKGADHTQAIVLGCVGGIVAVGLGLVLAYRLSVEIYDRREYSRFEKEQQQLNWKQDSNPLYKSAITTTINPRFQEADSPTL
Assay type: cell-based
Protocol: The ability of test substances to inhibit the binding of a human B cell line, RPMI-8866, which is known to express α4β7 integrin, to MAdCAM-1 was measured.
To 96-well microtiter plates, recombinant mouse MAdCAM-1/Fc (R&D systems) solution (1 μg/mL) diluted with buffer A (carbonate buffer, pH 9.6) was added at 50 μL/well, followed by incubation at 4° C. overnight. After washing once with PBS, Block Ace (Snow Brand Milk Products Company, Limited) was added at 150 μL/well, followed by incubation at room temperature for 2 hours. After removal, washing was conducted once with PBS.
100 μL of each test substance diluted with a binding buffer (DMEM containing 40 mM HEPES, 0.2% BSA, and 4 mM MnCl2) to various concentrations and 100 μL of RPMI-8866 cells (2×10^6 cell/mL) were added to plates coated with MAdCAM-1/Fc (5×10^5 cells/well) with human serum being contained at a final concentration of 50%, followed by incubation at 30° C. for 15 minutes to 60 minutes. After the cells were bound to each well, unbound cells were removed by washing with PBS. To the plates, buffer C (PBS containing 1.5% Triton X-100) was added at 50 μL/well to lyse the bound RPMI-8866 cells. To 30 μL of the cell lysate, 30 μL of Substrate Buffer (Promega, CytoTox 96 Non-Radioactive Cytotoxicity Assay) was added, and the reaction was allowed to proceed at room temperature in a dark place for 30 minutes. To each well, 30 μL of Stop Solution (Promega, CytoTox 96 Non-Radioactive Cytotoxicity Assay) was added, and the absorbance at 490 nm was measured by using a plate reader. Here, by the obtained absorbance, the activity of the lactate dehydrogenase (LDH) dissolved into the supernatant of each well was detected. In other words, the absorbance was proportional to the number of the RPMI-8866 cells bound to MAdCAM-1 and remaining on the plate. The test was duplicated. The binding ratios of the cells at various concentrations were determined, with the absorbance of a well containing no test substance taken as 100%. Then, the concentration IC50, at which 50% binding inhibition was achieved, was calculated.
The MAdCAM-1/α4β7 integrin binding inhibitory activity in the presence of serum was measured in the same manner as in Test (3) described above. […] The VCAM-1/α4β1 integrin binding inhibitory activity evaluation test and the MAdCAM-1/α4β7 integrin binding inhibitory activity evaluation test were carried out according to the methods described in Tests (1) and (2) described above.

Row | Compound | IC50
1 | Cn1c(=O)n(-c2ccc(C[C@H](NC(=O)c3ncc(NS(=O)(=O)c4ccncc4)cc3F)C(=O)O)cc2)c(=O)c2ccncc21 [Example 184, N-({3-Fluoro-5-[(pyridin-4-yl-sulfonyl)amino]pyridin-2-yl}carbonyl)-4-(1-methyl-2,4-dioxo-1,4-dihydropyrido[3,4-d]pyrimidin-3(2H)-yl)-L-phenylalanine] | 0.01 to 0.05 µM
2 | Cn1c(=O)n(-c2ccc(C[C@H](NC(=O)c3c(F)cc(NS(=O)(=O)c4ccccc4O)cc3F)C(=O)O)nc2)c(=O)c2ccncc21 [Example 185, N-(2,6-Difluoro-4-{[(2-hydroxyphenyl)sulfonyl]amino}benzoyl)-3-[5-(1-methyl-2,4-dioxo-1,4-dihydropyrido[3,4-d]pyrimidin-3(2H)-yl)pyridin-2-yl]-L-alanine] | 0.01 to 0.05 µM
3 | Cn1c(=O)n(-c2ccc(C[C@H](NC(=O)c3cc(F)c(NS(=O)(=O)c4cccs4)cc3F)C(=O)O)cc2)c(=O)c2ccncc21 [Example 213, N-{2,5-Difluoro-4-[(2-thienylsulfonyl)amino]benzoyl}-4-(1-methyl-2,4-dioxo-1,4-dihydropyrido[3,4-d]pyrimidin-3(2H)-yl)-L-phenylalanine] | 0.01 to 0.05 µM
4 | CCOc1ccccc1S(=O)(=O)Nc1cc(F)c(C(=O)N[C@@H](Cc2ccc(-n3c(=O)c4ccncc4n(C)c3=O)cc2)C(=O)O)c(F)c1 [Example 214, N-(4-{[(2-Ethoxyphenyl)sulfonyl]amino}-2,6-difluorobenzoyl)-4-(1-methyl-2,4-dioxo-1,4-dihydropyrido[3,4-d]pyrimidin-3(2H)-yl)-L-phenylalanine] | 0.01 to 0.05 µM
5 | Cn1c(=O)n(-c2ccc(C[C@H](NC(=O)c3cc(F)c(NS(=O)(=O)c4ccc(-c5cncnc5)cc4)cc3F)C(=O)O)nc2)c(=O)c2ccncc21 [Example 215, N-(2,5-Difluoro-4-{[(4-pyrimidin-5-ylphenyl)sulfonyl]amino}benzoyl)-3-[5-(1-methyl-2,4-dioxo-1,4-dihydropyrido[3,4-d]pyrimidin-3(2H)-yl)pyridin-2-yl]-L-alanine] | 0.01 to 0.05 µM
6 | Cn1ccc(=O)n(-c2ccc(C[C@H](NC(=O)c3cc(F)c(NS(=O)(=O)c4ccc(-c5cncnc5)cc4)cc3F)C(=O)O)cc2)c1=O [Example 216, N-(2,5-Difluoro-4-{[(4-pyrimidin-5-ylphenyl)sulfonyl]amino}benzoyl)-4-(3-methyl-2,6-dioxo-3,6-dihydropyrimidin-1(2H)-yl)-L-phenylalanine] | 0.01 to 0.05 µM
7 | Cn1c(=O)n(-c2ccc(C[C@H](NC(=O)c3cc(F)c(NS(=O)(=O)c4ccc(-n5cncn5)cn4)cc3F)C(=O)O)nc2)c(=O)c2ccncc21 [Example 217, N-[2,5-Difluoro-4-({[5-(1H-1,2,4-triazol-1-yl)pyridin-2-yl]sulfonyl}amino)benzoyl]-3-[5-(1-methyl-2,4-dioxo-1,4-dihydropyrido[3,4-d]pyrimidin-3(2H)-yl)pyridin-2-yl]-L-alanine] | 0.01 to 0.05 µM
8 | Cn1c(=O)n(-c2ccc(C[C@H](NC(=O)c3cc(F)c(NS(=O)(=O)c4ccc(-n5cnnn5)cc4)cc3F)C(=O)O)nc2)c(=O)c2ccncc21 [Example 218, N-[2,5-Difluoro-4-({[4-(1H-tetrazol-1-yl)phenyl]sulfonyl}amino)benzoyl]-3-[5-(1-methyl-2,4-dioxo-1,4-dihydropyrido[3,4-d]pyrimidin-3(2H)-yl)pyridin-2-yl]-L-alanine] | 0.01 to 0.05 µM
9 | Cn1c(=O)n(-c2ccc(C[C@H](NC(=O)c3cc(F)c(NS(=O)(=O)c4ccc(-n5cnnc5)cc4)cc3F)C(=O)O)nc2)c(=O)c2ccncc21 [Example 219, N-[2,5-Difluoro-4-({[4-(4H-1,2,4-triazol-4-yl)phenyl]sulfonyl}amino)benzoyl]-3-[5-(1-methyl-2,4-dioxo-1,4-dihydropyrido[3,4-d]pyrimidin-3(2H)-yl)pyridin-2-yl]-L-alanine] | 0.01 to 0.05 µM
10 | Cn1c(=O)n(-c2ccc(C[C@H](NC(=O)c3cc(F)c(NS(=O)(=O)c4ccc(-c5cncnc5)cn4)cc3F)C(=O)O)nc2)c(=O)c2ccncc21 [Example 220, N-(2,5-Difluoro-4-{[(5-pyrimidin-5-ylpyridin-2-yl)sulfonyl]amino}benzoyl)-3-[5-(1-methyl-2,4-dioxo-1,4-dihydropyrido[3,4-d]pyrimidin-3(2H)-yl)pyridin-2-yl]-L-alanine] | 0.01 to 0.05 µM
11 | Cn1c(=O)n(-c2ccc(C[C@H](NC(=O)c3cc(F)c(NS(=O)(=O)c4ccc(-n5cncn5)cc4)cc3F)C(=O)O)cn2)c(=O)c2ccncc21 [Example 221, N-[2,5-Difluoro-4-({[4-(1H-1,2,4-triazol-1-yl)phenyl]sulfonyl}amino)benzoyl]-3-[6-(1-methyl-2,4-dioxo-1,4-dihydropyrido[3,4-d]pyrimidin-3(2H)-yl)pyridin-3-yl]-L-alanine] | 0.01 to 0.05 µM
12 | Cn1c(=O)n(-c2ccc(C[C@H](NC(=O)c3cc(F)c(NS(=O)(=O)c4ccc(-c5ncccn5)cn4)cc3F)C(=O)O)nc2)c(=O)c2ccncc21 [Example 222, N-(2,5-Difluoro-4-{[(5-pyrimidin-2-ylpyridin-2-yl)sulfonyl]amino}benzoyl)-3-[5-(1-methyl-2,4-dioxo-1,4-dihydropyrido[3,4-d]pyrimidin-3(2H)-yl)pyridin-2-yl]-L-alanine] | 0.05 to 0.2 µM

Now from value to compound:

Row | IC50 | Compound
13 | 0.01 to 0.05 µM | CNCc1ccc(S(=O)(=O)Nc2ccc(C(=O)N[C@@H](Cc3ccc(-n4c(=O)c5ccncc5n(C)c4=O)cn3)C(=O)O)c(F)c2)cc1 [Example 177, N-{2-Fluoro-4-[({4-[(methylamino)methyl]phenyl}sulfonyl)amino]benzoyl}-3-[5-(1-methyl-2,4-dioxo-1,4-dihydropyrido[3,4-d]pyrimidin-3(2H)-yl)pyridin-2-yl]-L-alanine]
14 | 0.01 to 0.05 µM | Cn1c(=O)n(-c2ccc(C[C@H](NC(=O)c3c(F)cc(NS(=O)(=O)c4ccc(-c5ccsc5)cc4)cc3F)C(=O)O)nc2)c(=O)c2ccncc21 [Example 178, N-[2,6-Difluoro-4-({[4-(3-thienyl)phenyl]sulfonyl}amino)benzoyl]-3-[5-(1-methyl-2,4-dioxo-1,4-dihydropyrido[3,4-d]pyrimidin-3(2H)-yl)pyridin-2-yl]-L-alanine]
15 | ≤ 0.01 µM | Cn1c(=O)n(-c2ccc(C[C@H](NC(=O)c3ccc(NS(=O)(=O)c4cc[n+]([O-])cc4)cc3F)C(=O)O)cc2)c(=O)c2cc[n+]([O-])cc21 [Example 179, (2S)-2-[[2-Fluoro-4-[(1-oxidopyridin-1-ium-4-yl)sulfonylamino]benzoyl]amino]-3-[4-(1-methyl-7-oxido-2,4-dioxo-pyrido[3,4-d]pyrimidin-7-ium-3-yl)phenyl]propanoic Acid]
16 | ≤ 0.01 µM | Cc1cc(CNC(C)(C)C)ccc1S(=O)(=O)Nc1ccc(C(=O)N[C@@H](Cc2ccc(-n3c(=O)c4ccncc4n(C)c3=O)cc2)C(=O)O)c(F)c1 [Example 180, N-{4-[({4-[(tert-Butylamino)methyl]-2-methylphenyl}sulfonyl)amino]-2-fluorobenzoyl}-4-(1-methyl-2,4-dioxo-1,4-dihydropyrido[3,4-d]pyrimidin-3(2H)-yl)-L-phenylalanine]
17 | 0.01 to 0.05 µM | Cc1cc(CNC2CCCC2)ccc1S(=O)(=O)Nc1ccc(C(=O)N[C@@H](Cc2ccc(-n3c(=O)c4ccncc4n(C)c3=O)cc2)C(=O)O)c(F)c1 [Example 181, N-{4-[({4-[(Cyclopentylamino)methyl]-2-methylphenyl}sulfonyl)amino]-2-fluorobenzoyl}-4-(1-methyl-2,4-dioxo-1,4-dihydropyrido[3,4-d]pyrimidin-3(2H)-yl)-L-phenylalanine]
18 | 0.01 to 0.05 µM | Cn1c(=O)n(-c2ccc(C[C@H](NC(=O)c3ccc(NS(=O)(=O)c4ccc[nH]4)cc3F)C(=O)O)nc2)c(=O)c2ccncc21 [Example 182, N-{2-Fluoro-4-[(1H-pyrrol-2-yl-sulfonyl)amino]benzoyl}-3-[5-(1-methyl-2,4-dioxo-1,4-dihydropyrido[3,4-d]pyrimidin-3(2H)-yl)pyridin-2-yl]-L-alanine]
19 | 0.01 to 0.05 µM | Cn1c(=O)n(-c2ccc(C[C@H](NC(=O)c3ncc(NS(=O)(=O)c4ccco4)cc3F)C(=O)O)cc2)c(=O)c2ccncc21 [Example 183, N-({3-Fluoro-5-[(2-furylsulfonyl)amino]pyridin-2-yl}carbonyl)-4-(1-methyl-2,4-dioxo-1,4-dihydropyrido[3,4-d]pyrimidin-3(2H)-yl)-L-phenylalanine]
